Measured values: US4264729A, “Method and reagent for detecting cancerigenic and anticancerous substances” (priority 1978, dated 1981)

Tests used:
[1] = system: DNA T (matricial DNA separated from sound tissues); assay: synthesis in vitro of DNA on a matrix of check DNA (DNA T) with DNA-polymerase, radioactive acidoprecipitable DNA measured; format: biochemical; conditions: for replication of DNA-T (amount of radioactive DNA 3H synthetised): as a function of the amount of substance in the reactional medium (0 to 100 μg in 0.15 ml), 10 minutes at 36° C., FIG. 1, 3, 4; for replication of DNA-T separated from sound breast tissues: breast tissue DNA, FIG. 6; for replication of DNA taken on check tissues such as lung or liver tissues: lung or liver tissue DNA
Description: (§1) According to the invention, there is provided a method in which there is observed, in measuring the radioactive acidoprecipitable DNA, the synthesis of DNA on a matrix of DNA separated from sound tissues on the one hand, and on a matrix of DNA separated from cancerous tissues on the other hand, in a medium comprising four desoxyribonucleoside-5'-triphosphates, one of which is radioactive, and one enzyme DNA-polymerase, with the substance to be tested and without it.
(§2) For carrying into effect the test, which in itself is very short, it is necessary to hold several preparations, previously and carefully proven, of matricial DNA separated from sound tissues (check tissue, hereinafter referenced to as DNA T) and of matricial DNA separated from cancerous tissues (hereinafter referenced to as DNA C).
The preparations of DNA T are obtained in the same manner by using as raw material sound tissues separated from various human or animal organs, or from sound cells cultivated "in vitro" in a suitable medium.
(§3) For each test, it is necessary to hold at least four couples of matricial DNA of different origins, each couple being formed by an DNA T preparation and an DNA C preparation originating from the same organ, of the same animal kind. For example, there is used at least four couples selected among the following: DNA T and DNA C separated from lung tissue; DNA T and DNA C separated from breast tissue; DNA T and DNA C separated from ovary tissue; DNA T of primary cells of monkey kidney (RS), or of "Vero" cells, or of "SIRC" cells in culture and DNA C of KB cells or Hela cells, or L cells in culture.
(§4) For separating DNA, either from sound tissues or from cancerous tissues, there is used a modified conventional method of separation and purification (J. Narmur, J. Mol. Biol. 3 208, 1961). When a cancerous tissue or a tumour is used, the neighbouring sound or questionable tissues must first be discarded, and reciprocally, the sound tissues must be free from any questionable tissues.
(§5) Immediately after exeresis, the tissue is either frozen at -20° C., or finely crushed in a kneading machine, in the presence of a buffer 2 SSC (containing 17.4 g of NaCl and 10.7 g of trisodic citrate for 1 liter of sterile distilled water) in a sterile aqueous solution (1 to 3 ml of buffer according to the volume of tissue) and of a final concentration of 0.2% in laurylsulphate (by adding an aqueous mother solution of laurylsulphate at 20%).
(§6) In order to get rid of the proteins and to keep the DNA, several extractions are made in the presence of buffer 2 SSC and phenol (solution containing 10% of water), followed by extractions with chloroform and by centrifugations according to the conventional technique of separation and purification of DNA. The DNA present in the aqueous phases is precipitated in 96° alcohol, picked up with a glass rod, solved in a little volume of 1 SSC, then treated by the pancreatic ribonucleases and T1, what requires a whole supplementary cycle of repurification with phenol, then with chloroform. The DNA is dialysed against a solution of 2 SSC (24 hours at 4° C.), dosed by absorption in ultraviolet and stored frozen at -20° C., several months if necessary. Before use, the DNA is once more dialysed during several hours against sterile distilled water.
(§7) The DNA is characterized by its absorbance in ultraviolet at 260 nm and 280 nm. The typical ratio 260/280 varies from 2.0 to 2.1 according to the preparation. The content of the ARN in proteins varies from 0.3 to 0.6% and the content in polyribonucleotids having resisted the action of nucleases and contaminating the DNA is between 1 and 3%. The RNA (ribonucleic acid) can be eliminated by degradation by KOH 0.3 M (final concentration) during 16 hours at 36° C., and the DNA is then dialysed and stored as hereinabove mentioned. […]

[2] = system: DNA C (matricial DNA separated from cancerous tissues); assay: synthesis in vitro of DNA on a matrix of cancerous DNA (DNA C) with DNA-polymerase, radioactive acidoprecipitable DNA measured; format: biochemical; conditions: for replication of DNA-C (amount of radioactive DNA 3H synthetised): as a function of the amount of substance in the reactional medium (0 to 100 μg in 0.15 ml), 10 minutes at 36° C., FIG. 1, 3, 4; for replication of DNA-C separated from cancerous breast tissues: breast tissue DNA, FIG. 6; for replication of DNA taken on cancerous tissues such as lung or liver tissues: lung or liver tissue DNA
Description: as §1, §2
The DNA C preparations are obtained by using as raw material various cancerous tissues or tumours taken on a human or animal organ, such as breast, lung, ovary, neuro-carcinome, ascites, etc. It is also possible to use cultures of cancerous cells such as KB or Hela cells, etc.
as §3, §4, §5, §6, §7

[3] = between 0,005 and 0,01 ml of acridine orange (0.1 mg/ml) in the medium, FIG. 2

replication of DNA-T separated from sound breast tissues [1]	replication of DNA taken on check tissues such as lung or liver tissues [1]	replication of DNA-C separated from cancerous breast tissues [2]	replication of DNA taken on cancerous tissues such as lung or liver tissues [2]	Compound	replication of DNA-T (amount of radioactive DNA 3H synthetised) [1]	replication of DNA-C (amount of radioactive DNA 3H synthetised) [2]	other results
stimulate weakly	no effect	very strongly	no effect	C[C@]12CC[C@@H]3c4ccc(O)cc4CC[C@H]3[C@@H]1CC[C@@H]2O [estradiol]	–	–	–
stimulate weakly	no effect	very strongly	no effect	C[C@]12CC[C@@H]3c4ccc(O)cc4CC[C@H]3[C@@H]1CCC2=O [estrone]	–	–	–

Continued, compound first:

Compound	replication of DNA-T separated from sound breast tissues [1]	replication of DNA taken on check tissues such as lung or liver tissues [1]	replication of DNA-C separated from cancerous breast tissues [2]	replication of DNA taken on cancerous tissues such as lung or liver tissues [2]	replication of DNA-T (amount of radioactive DNA 3H synthetised) [1]	replication of DNA-C (amount of radioactive DNA 3H synthetised) [2]	other results
c1cc[n+]2c(c1)-c1cccc[n+]1CC2 [Diquat, ethylene-1,1-bipyridilium-2,2-dibromid]	–	–	–	–	inhibition non selective	inhibition non selective	–
O=C(O)c1cccnc1 [Nicotinic acid]	–	–	–	–	neutral	neutral	–
CN(C)c1ccc2cc3ccc(N(C)C)cc3nc2c1 [acridine orange]	–	–	–	–	–	–	synthesis of DNA-T [1, 3]: slows down the synthesis; replication of check DNA ([1]; high concentrations): toxic and inhibit; replication of DNA-C ([2]; 0.005 ml acridine orange (0.1 mg/ml) in the medium, compared with DNA-T, FIG. 2): stimulation of DNA-C replication is clearly stronger than that of DNA-T; synthesis of DNA-C [2, 3]: slows down the synthesis; replication of cancerous DNA ([2]; high concentrations): toxic and inhibit
C1CNCCN1 [piperazine]	–	–	–	–	neutral	neutral	–
